The text below walks through data of PMC12491715 (Acta Pharmaceutica Sinica. B, 2025).

Converted amounts (≈) assume the structure as drawn.

For one data set, the system named is GSK3β. Description: Western blot of APP/PS1 mice brain homogenates, GSK3β. Format: in vivo, C57BL/6J-TgN(APP/PS1)ZLFILAS mice. The settings on record: 15-day treatment, 1 or 5 mg/kg ip.
The next data set in a line: Aqueous stability (UPLC). Format: physicochemical. On the procedure:
For the aqueous stability determination, UPLC analyses were performed as described under Chemistry–General Information. The method used a Waters Acquity UPLC® HSS C18 SB column (2.1 mm× 50 mm, 1.8 μm) thermostated at 40 °C, with: injection volume, 5 μL; flow rate, 0.4 mL/min; detector λ, 220 nm; mobile phase A: 0.1% TFA (v/v) in MilliQ water; mobile phase B: MeCN. Gradient: 0–5 min, 20%–100% B; 5–6 min, 20% B.
Compound stock solutions (100 mmol/L) were prepared in absolute EtOH, while the internal standard (caffeine) was dissolved in PBS (0.1 mg/mL). The aqueous stability solutions were prepared by mixing 1200 μL PBS with internal standard, 150 μL absolute EtOH, and 150 μL compound stock solution in a HPLC vial to give 10 mmol/L compound concentration in PBS/EtOH = 80:20, which was injected immediately and then at hourly intervals for 48 h. The analyte AUCs were normalized on internal standard AUCs and compared with the timepoint zero. For the rate calculation, pseudo-first order kinetics were assumed.
For investigation of compound 8 stability in an aqueous medium, its stock solution (10,000 mg/L) was prepared in EtOH. 15 μL of the stock solution was mixed with 60 μL of caffeine (2500 mg/L in EtOH) and 1425 μL of the respective aqueous solution/buffer to achieve final concentration of 100 mg/L with 5% ethanol content. The UPLC analysis was carried as described above.

A short description of the next data set: Thermodynamic solubility. Format: physicochemical. The settings on record: thermodynamic from solid. On the procedure:
The supernatants were diluted 1:5 with 50% MeCN or used directly for UPLC analysis (calibration curve was constructed from 0.5–100 mg/L standard solutions of compound 8).

Another data set relates to SH-SY5Y cells. Description: Neuroprotection assay against Aβ1–42, 7-AAD flow cytometry. Format: cell-based, human. The note with it: 5 μmol/L compound, 5 μmol/L fibrillar Aβ1–42, 48 h. On the procedure: Cell culture and treatments The human neuroblastoma SH-SY5Y cell line was purchased from American Type Culture Collection (Manassas, VA, USA). Cells were cultured in Advanced Dulbecco’s modified Eagle’s medium (Gibco, Thermo Fisher Scientific, Waltham, MA, USA) supplemented with 10% fetal bovine serum (FBS, Gibco), 2 mmol/L L-glutamine, 50 U/mL penicillin and 50 μg/mL streptomycin (Sigma, St. Louis, MO, USA) in a humidified atmosphere of 95% air and 5% CO2 at 37 °C, and grown to 80% confluence. Prior to cell treatment, complete medium was replaced with serum-reduced medium (i.e., with 2% FBS). Compounds were prepared as a stock solution of 50 mmol/L in DMSO.
Neuroprotection assay The neuroprotective effect of compounds on cytotoxic effect of Aβ1–42 was determined with the fluorescent intercalator 7-aminoactinomycin D (7-AAD) assessed by flow cytometry. Prior to cell treatment, the peptide Aβ1–42 (Merck Millipore, Darmstadt, Germany) was dissolved in DMSO at a concentration of 1 mmol/L and was incubated at 100 μmol/L in 1 mol/L HCl at 37 °C for 24 h to induce Aβ aggregation. […] Cells were then analysed for cytotoxicity by flow cytometry on Attune NxT flow cytometer (Thermo Fisher Scientific). The percentage of 7AAD positive (7AADpos) cells was evaluated using FlowJo software (FlowJo, LLC., Ashland, OR, USA).

The nature of data set [1]: Hydrolysis of 8 in human plasma. Format: in vitro ADME. The source says: See Supporting Information Tables S4.
A short description of data set [2]: Shake-flask partition coefficient / logD. Format: physicochemical. The settings on record: n-octanol/PBS buffer. On the procedure: Shake-flask partition coefficient measurement was done according to OECD guideline 107 (27. 7. 1995) and EPA OPPTS 830.7550 guideline (1996). […] […] Each solvent ratio was done in duplicates. The Eppendorf tubes were thoroughly shaken to ensure partition and centrifuged (5000 × g, 10 min) to separate the phases. Water phase (carefully sampled using needle and syringe) was transferred to HPLC vials directly, whereas n-octanol phases were diluted with MeCN (10–50×) prior to analysis. Additional dilutions were carried out, if needed.

For the compound `CCN(CC)C(=O)n1cnc(C2(CC)Cc3ccccc3C2)c1` [Compound 8, N,N-Diethyl-4-(2-ethylindan-2-yl)-1H-imidazole-1-carboxamide], the “phosphorylation of GSK3β in whole brain homogenates” value with GSK3β was “increased phosphorylation of GSK3β”. Besides, the “t1/2 in aqueous solution” value in “Aqueous stability (UPLC)” (PBS:EtOH = 80:20, 10 mmol/L, during 48 h) was “stable”. The “% left after 24 h” value in the data set “Aqueous stability (UPLC)” (PBS:EtOH = 95:5, 100 mg/L) worked out at 100.0%; in “Aqueous stability (UPLC)” (pH 2:EtOH = 95:5, 100 mg/L), 99.9%; in the data set “Aqueous stability (UPLC)” (pH 4:EtOH = 95:5, 100 mg/L), 100.0%; in the data set “Aqueous stability (UPLC)” (pH 6:EtOH = 95:5, 100 mg/L), 100.0%; in “Aqueous stability (UPLC)” (pH 10:EtOH = 95:5, 100 mg/L) it was 97.7%. Also, the solubility at 24 h was 0.615 ± 0.172 mg/mL (≈ 1970 µM) in the data set “Thermodynamic solubility” (1% Tween 20 in water, aqueous with cosolvent or surfactant or cyclodextrin, 1% Tween 20/water); 0.1 ± 0.02 mg/mL (≈ 321 µM) in the data set “Thermodynamic solubility” (PBS, aqueous buffer); 2.42 ± 0.108 mg/mL (≈ 7760 µM) in “Thermodynamic solubility” (pH 2 solution, pH 2, aqueous buffer); 0.166 ± 0.012 mg/mL (≈ 533 µM) in the data set “Thermodynamic solubility” (pH 4 solution, pH 4, aqueous buffer); 0.136 ± 0.001 mg/mL (≈ 437 µM) in “Thermodynamic solubility” (pH 6 solution, pH 6, aqueous buffer); 0.103 ± 0.017 mg/mL (≈ 331 µM) in “Thermodynamic solubility” (pH 10 solution, pH 10, aqueous buffer). Moreover, the solubility at 24 h in “Thermodynamic solubility” (water) worked out at 0.115 ± 0.026 mg/mL (≈ 369 µM). Further, the “7-AAD-positive cells after Aβ1–42 treatment” value in the data set with SH-SY5Y cells is recorded as “significant reduction”. The “8 present after 24 h” value in data set [1] (control experiment, plasma pre-treated with BChE-selective covalent inhibitor isoOMPA) is reported as above 85%. The compound further gave a half-life at 20 μg/L in data set [1] (human, plasma, 37 °C, nominal starting concentration 20 μg/L) of 5 h. Also, the logD in data set [2] (pH 0.91) came out at 0.3 ± 0.06; in data set [2] (pH 1.99), 1.18 ± 0.1; in data set [2] (pH 3.07) it was 2.17 ± 0.25; in data set [2] (pH 4.44), 3.05 ± 0.1; in data set [2] (pH 6.02) it was 3.15 ± 0.14; in data set [2] (pH 7.4) it was 3.33 ± 0.11. The logD in data set [2] (pH 9.55) amounted to 3.52 ± 0.39.

One may read the solubility as how much of the substance goes into solution per volume. Higher therefore signals a readily soluble substance. Usually half-life stands for the time in which the quantity being followed falls by half. The low end stands for rapid decline, the high end for slow decline. A word on the logD: it is lipophilicity at a set pH, counting ionised and neutral species. Read a high logD as a more lipophilic compound.
